Assays:
human OATP1B1 = molecular target: T1, human OATP1B1 (Homo sapiens, UniProt Q9Y6L6); experiment: In vitro inhibition of human OATP1B1
T1 sequence (Q9Y6L6 1-691): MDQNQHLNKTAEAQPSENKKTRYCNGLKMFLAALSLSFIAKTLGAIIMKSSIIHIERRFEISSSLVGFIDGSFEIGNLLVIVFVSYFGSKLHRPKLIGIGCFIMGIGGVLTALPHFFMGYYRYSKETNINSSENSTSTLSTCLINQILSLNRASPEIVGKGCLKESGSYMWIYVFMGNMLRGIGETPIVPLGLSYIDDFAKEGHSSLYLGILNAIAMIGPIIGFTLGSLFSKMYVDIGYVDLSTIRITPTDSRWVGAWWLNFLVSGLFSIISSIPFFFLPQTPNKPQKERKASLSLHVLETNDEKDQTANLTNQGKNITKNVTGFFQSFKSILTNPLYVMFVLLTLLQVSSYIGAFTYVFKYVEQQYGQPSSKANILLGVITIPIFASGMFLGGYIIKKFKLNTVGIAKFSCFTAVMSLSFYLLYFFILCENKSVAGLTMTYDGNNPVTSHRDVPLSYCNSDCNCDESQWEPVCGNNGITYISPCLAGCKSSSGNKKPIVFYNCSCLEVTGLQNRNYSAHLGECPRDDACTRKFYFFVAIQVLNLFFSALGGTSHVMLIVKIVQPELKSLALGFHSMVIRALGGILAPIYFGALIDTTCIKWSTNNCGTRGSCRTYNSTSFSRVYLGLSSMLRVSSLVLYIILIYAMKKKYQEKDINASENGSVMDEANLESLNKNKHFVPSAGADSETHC
Source text: (§1) The use of teriflunomide for treating multiple sclerosis is described in U.S. Pat. No. 6,794,410.

OATP1B3 = molecular target: T2, OATP1B3 (Homo sapiens, UniProt Q9NPD5); experiment: In vitro inhibition of OATP1B3
T2 sequence (Q9NPD5 1-702): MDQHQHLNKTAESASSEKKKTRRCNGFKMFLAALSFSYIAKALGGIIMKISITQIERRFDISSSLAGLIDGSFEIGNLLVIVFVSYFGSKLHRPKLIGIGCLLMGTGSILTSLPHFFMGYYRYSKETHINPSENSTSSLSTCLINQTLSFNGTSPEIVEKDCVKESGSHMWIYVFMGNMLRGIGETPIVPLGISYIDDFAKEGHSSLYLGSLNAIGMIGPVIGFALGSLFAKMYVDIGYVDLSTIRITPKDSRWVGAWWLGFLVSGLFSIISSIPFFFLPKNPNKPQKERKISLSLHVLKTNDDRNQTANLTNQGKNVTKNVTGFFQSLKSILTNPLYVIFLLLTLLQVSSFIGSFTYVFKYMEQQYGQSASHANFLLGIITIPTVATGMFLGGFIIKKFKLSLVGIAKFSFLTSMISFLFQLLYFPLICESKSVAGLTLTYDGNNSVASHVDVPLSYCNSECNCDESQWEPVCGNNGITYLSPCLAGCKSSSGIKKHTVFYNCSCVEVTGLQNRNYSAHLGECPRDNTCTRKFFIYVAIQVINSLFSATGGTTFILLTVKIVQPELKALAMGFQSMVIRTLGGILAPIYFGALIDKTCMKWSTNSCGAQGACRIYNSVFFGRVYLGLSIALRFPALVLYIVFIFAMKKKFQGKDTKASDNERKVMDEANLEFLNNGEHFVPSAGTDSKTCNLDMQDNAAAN
Source text: as §1

OAT3 = molecular target: T3, OAT3 (Homo sapiens, UniProt Q8TCC7); experiment: In vitro inhibition of OAT3
T3 sequence (Q8TCC7 1-542): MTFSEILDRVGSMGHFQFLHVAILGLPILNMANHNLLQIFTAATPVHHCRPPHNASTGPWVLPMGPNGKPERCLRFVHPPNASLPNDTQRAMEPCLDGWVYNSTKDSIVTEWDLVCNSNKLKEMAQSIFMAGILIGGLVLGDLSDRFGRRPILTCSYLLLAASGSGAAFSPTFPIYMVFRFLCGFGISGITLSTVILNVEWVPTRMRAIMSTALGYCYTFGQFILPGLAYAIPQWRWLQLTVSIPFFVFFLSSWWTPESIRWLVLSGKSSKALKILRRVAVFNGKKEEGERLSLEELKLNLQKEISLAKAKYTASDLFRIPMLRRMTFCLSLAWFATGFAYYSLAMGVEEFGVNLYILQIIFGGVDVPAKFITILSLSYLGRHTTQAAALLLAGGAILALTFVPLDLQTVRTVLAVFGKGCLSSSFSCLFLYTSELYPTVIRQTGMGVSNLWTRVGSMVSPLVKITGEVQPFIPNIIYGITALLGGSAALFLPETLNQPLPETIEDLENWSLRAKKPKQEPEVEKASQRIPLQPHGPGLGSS
Source text: as §1

BCRP = molecular target: T4, BCRP (Homo sapiens, UniProt Q9UNQ0); experiment: In vitro inhibition of BCRP
T4 sequence (Q9UNQ0 1-655): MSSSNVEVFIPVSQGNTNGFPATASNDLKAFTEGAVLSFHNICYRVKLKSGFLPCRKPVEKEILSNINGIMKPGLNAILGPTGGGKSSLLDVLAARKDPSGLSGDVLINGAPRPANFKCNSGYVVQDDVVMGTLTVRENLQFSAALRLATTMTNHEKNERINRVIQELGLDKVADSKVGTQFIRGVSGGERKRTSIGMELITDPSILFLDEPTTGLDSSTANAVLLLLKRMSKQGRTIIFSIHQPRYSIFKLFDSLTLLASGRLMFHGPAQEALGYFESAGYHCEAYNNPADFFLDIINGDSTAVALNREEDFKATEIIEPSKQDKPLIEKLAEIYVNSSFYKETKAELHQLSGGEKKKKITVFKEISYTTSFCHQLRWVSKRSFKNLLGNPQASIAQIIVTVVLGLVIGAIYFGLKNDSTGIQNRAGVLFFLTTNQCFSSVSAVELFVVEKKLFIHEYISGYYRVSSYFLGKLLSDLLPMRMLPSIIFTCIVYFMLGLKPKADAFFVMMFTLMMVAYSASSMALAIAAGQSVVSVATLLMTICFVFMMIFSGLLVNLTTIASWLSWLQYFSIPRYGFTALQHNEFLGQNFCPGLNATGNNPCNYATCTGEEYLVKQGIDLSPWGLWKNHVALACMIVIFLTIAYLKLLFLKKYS
Source text: as §1

[1] = Crossover interaction study: effect of repeated doses of teriflunomide on the pharmacokinetics of a single dose of rosuvastatin in healthy male subjects; type: in vivo, human
Method: A single-center, open-label, 1-sequence, 2-period, 2-treatment crossover study with a 5-day washout between periods was conducted in 15 healthy male subjects aged 18 to 45 to evaluate the effect of repeated doses of teriflunomide on the pharmacokinetics (PK) of a single dose of rosuvastatin 10 mg. All subjects received the following treatments during each period: • 1. Period 1: A single 10 mg dose of rosuvastatin was administered in fasted state followed by a 5-day washout (from Days 1 to 6). Day 6 corresponded to Day 1 of Period 2. • 2. Period 2: A loading dose of 70 mg teriflunomide was administered once a day for 4 days (Days 1 to 4), followed by 14 mg once a day for 8 days (Days 5 to 12) in fed conditions except for Day 12. A single dose of 10 mg rosuvastatin was co-administered with teriflunomide on Day 12 in fasted conditions.
The following PK parameters were calculated using noncompartmental methods from plasma rosuvastatin concentration obtained after single dose administration:
Rosuvastatin: Area under the plasma concentration versus time curve (AUC) from time zero to the real time corresponding to the last concentration above the lower limit of quantitation, tlast, (AUClast) and area under the plasma concentration versus time curve extrapolated to infinity (AUC).
Rosuvastatin: Maximum plasma concentration (Cmax) observed, time to reach maximum concentration (Tmax), tlast, and terminal half-life (t1/2z).
Rosuvastatin: Blood samples were collected at predose, 0.5, 1, 2, 3, 4, 5, 6, 8, 10, 12, 24 and 36 hours postdose on Day 1 of Period 1 and Day 12 of Period 2.
Rosuvastatin plasma concentrations were determined by a validated liquid chromatography couples with tandem mass spectrometry (LC-MS/MS) method, with a LLOQ (lower limit of quantification) of 50.1 pg/mL. Teriflunomide plasma concentrations were determined with a validated LC-MS/MS method with an LLOQ of 0.01 μg/mL.
Rosuvastatin PK parameters and teriflunomide Ctrough (trough plasma concentration) were summarized with descriptive statistics for each treatment.

[2] = following teriflunomide 70 mg QD for 4 days and 14 mg QD for 8 days

| IC50 (human OATP1B1) | IC50 (OATP1B3) | IC50 (OAT3) | IC50 (BCRP) | Compound | Increase in mean rosuvastatin AUC [1, 2] | Increase in mean rosuvastatin Cmax [1, 2] | AUC(0-t) ([1]; male, human, plasma, rosuvastatin 10 mg alone, mean ± SD, N=15, read-out: Rosuvastatin AUClast) | Tmax ([1]; male, human, plasma, rosuvastatin 10 mg alone, median (min-max), N=15) | Cmax ([1]; male, human, rosuvastatin 10 mg single dose alone, fasted, Day 1 Period 1, plasma, mean ± SD, N=15) | Rosuvastatin t1/2z ([1]; rosuvastatin 10 mg alone, mean ± SD, N=15) |
| --- | --- | --- | --- | --- | --- | --- | --- | --- | --- | --- |
| 7.1 µM | 7.04 µM | 1.3 µM | 0.15 µM | C/C(O)=C(\C#N)C(=O)Nc1ccc(C(F)(F)F)cc1 [Teriflunomide, (Z)-2-cyano-3-hydroxy-but-2-enoic acid-(4′-trifluoromethylphenyI)-amide] | – | – | – | – | – | – |
| – | – | – | – | CC(C)c1nc(N(C)S(C)(=O)=O)nc(-c2ccc(F)cc2)c1/C=C/[C@@H](O)C[C@@H](O)CC(=O)O [Rosuvastatin] | 2.51 fold | 2.65 fold | 31.5 ± 16.4 ng·h/mL | 3 h | 3.65 ± 1.78 ng/mL | 11.1 ± 2.99 h |
